Here are results for 4 molecules from patent US20040175419A1, “Control of compactibility through cystallization” (priority 2001, published 2004).

Type in all cases: physicochemical
The nature of series [1]: Compactability (slope of tensile strength versus compression pressure) of 80% API powder blend compressed on an Instron. The conditions noted are these: for compactability of the powder blend: 80% bulk drug and 20% excipient. The protocol: In order to evaluate the compressibility and compactability of all API lots generated by modifying the crystallization process, a blend of 80% API, 19.5% microcrystalline cellulose and 0.5% magnesium stearate was prepared by mixing in a tumble mixer for 5 minutes. Each mixture was then compressed on an Instron (Universal Stress-Strain Analyzer) using a 0.5 inch diameter tooling (upper and lower punches and die) at a speed of 100 mm/min at compression forces of 5, 10, 15, 20 and 25 kN each for a replicate of three tablets. The tablet dimensions were measured using a digital Vernier calliper and the strength of the tablets were determined using an Erweka hardness tester. The volume of the tablet can be calculated from the tablet dimensions normalized for the true density of the mixture being compressed. The compressibility curves are generated by plotting the solid fraction of the tablet generated at each compression pressure versus the respective compression pressure. The area under such a curve represents the extent of volume reduction. The force required to break the tablets is normalized for the area of the tablet to obtain the tensile strength value. Slopes for profiles of tensile strength versus the compression pressure represent the compactability of the material while the area under the curve of tensile strength versus the solid fraction of the tablets represents the extent of compaction or toughness of the material.

The nature of series [2]: Bonding Index calculated from tensile strength and dynamic indentation hardness. From the text:
The Bonding Index of the material can be calculated from the tensile strength measurements as well as the dynamic indentation hardness measurements described above using the equation shown below: [formula]
The highest bonding index value observed today is that of microcrystalline cellulose Avicel PH 101 which is 0.04. The bonding index of Lot # 2 was 0.034±0.001.

Series [3] can be described thus: Agglomerate size of API crystallized at different supersaturation. As to the method: The crystallization parameters and seeding conditions (using “as is” API at 0.1-0.2%) described in the procedure outlined in Table 1 was adopted as a starting point for modifications. By changing the ratio of solvent/antisolvent (isopropyl acetate/heptane) in step 3 (Table 1) from 1.67 to 1.0 and varying the pot temperature from 80 to 50° C., the degree of supersaturation was increased by a factor of 5 (from about 3.5 to about 17.5). The materials made from these conditions are generally agglomerates formed by a cluster of primary crystals plus the conjunction material which glue these crystals together.
At low supersaturation, large agglomerates (500-1000 μm) with large primary crystals (also large) were obtained. At high supersaturation the procedure generates small agglomerates (200-300 μm) with smaller primary crystals. This is consistent with other crystallization systems, in which nucleation is rate limiting, where high supersaturation favors the formation of agglomerates and mild supersaturation results in elementary crystals. Generally, these agglomerated materials compact quite poorly and create difficulties for large scale, high speed tablet manufacture. […] The manipulation of supersaturation was consequently not pursued further. […]

Series [4] in a line: Crystallinity by X-ray diffraction after milling. As to conditions: milled API, FIG. 4. From the text: This amorphization through the milling process can lead to chemical instability of the API. […] This clearly illustrated that modification of the crystallization process parameters to achieve higher compactability of the API is the preferred choice.
The nature of series [5]: Solid-state stability of crystal forms. The conditions noted are these: compared with forms 5, 6, 7. An excerpt: Due to the unique structure of the API material at least four different groups of crystal structures were observed (forms 4, 5, 6, 7) and analyzed by single crystal x-ray. […] Orthorhombic Form 6 consisted of a group of isostructural (1:1) solvates which accommodates solvents such as EtOAc, acetone and MEK. […] An exhaustive study of API crystallization on the feasibility of various solvents, control of polymorphs, and robustness of process concluded that the selected form could be consistently produced and kept stable in iPrOAc (or BuOAc)/Heptane (or Cyclohexane), following which a reproducible crystallization procedure in the iPrOAc/heptane solvent system was developed and implemented. This procedure, associated with the aminolysis of penultimate compound (Chemical Abstracts Systematic Name, (αS)-α-(Benzoylthio)-3,4,4-trimethyl-2,5-dioxo-1-imidazolidinebutanoyl-L-leucyl-N,3-dimethyl-L-valinamide), is successful in purging undesirable side products/impurities such as α,α′-Dithiobis[N-[1-[[[2,2-dimethyl-1-[(methylamino)carbonyl]propyl]amino]-carbonyl]-3-methylbutyl]-3,4,4-trimethyl-2,5-dioxo-1-imidazolidinebutanamide] which is the S,S′-dimer of the API. The crystallization procedure is further described in Table 1.

The nature of series [6]: Brittle fracture index (BFI) from compacts with and without a 1 mm hole. As to conditions: square compacts; scale 0 to 1. As to the method: Similarly, the tensile strength is determined for square compacts that are prepared with a magnified flaw using the tri-axial decompression press and a upper punch having a 1 mm diameter pin spring loaded on its surface. This pin facilitates the introduction of a 1 mm diameter hole in the center of the compact. The tensile strength values of the compacts with and without a hole are used to evaluate the brittle fracture index (BFI) of the material as shown below: [formula]
Where, σT is the tensile strength of the square compacts without a hole in the center and σTo is the tensile strength of the square compacts with a 1 mm hole in the center that acts as a stress concentrator.

The nature of series [7]: Tensile strength of square compacts from tri-axial decompression press (Hiestand tablet indices). The conditions noted are these: square compacts prepared at a solid fraction of 0.85. As to the method:
In order to characterize the deformation mechanism of the API, Hiestand's tablet indices (see, E. N. Hiestand and D. P. Smith, Powder Technology, 38, pp 145-159 (1984) hereby incorporated by reference) were evaluated. The identical procedure as developed by E. N. Hiestand, at the Pharmacia and Upjohn company was adapted for evaluating the deformation properties of the API. In brief, square shaped compacts (1.97 cm^2) were prepared using a tri-axial decompression Loomis Engineering press. This tri-axial press facilitates compression pressure relief in three dimensions as opposed to […] as in the uni-axial press. […] Through tri-axial decompression it is possible to produce virtually flawless compacts. The API was compressed with the procedure describe above to produce compacts having a relative density or solid fraction of 0.85. The compacts were then subjected to tensile strength testing on an Instron stress-strain analyzer at a cross head speed of about 0.8 mm/min. This speed allowed the time constant between the peak stress and 1/e times the peak stress to be a constant of 10 seconds. […]
where, σ is the tensile strength calculated and F is the force required to initiate crack propagation in the compact and l and b are the length and breadth of the compact, respectively. […]

The nature of series [8]: Dynamic indentation hardness by pendulum impact apparatus. As to conditions: square compacts without a hole. As to the method:
The square compacts (without a hole) are then subjected to a dynamic indentation hardness evaluation using a pendulum impact apparatus as described in Tablet Indices^11. The velocity at which the pendulum sphere impacts the compact as well as the speed with which the pendulum sphere is rebound from the compact is recorded. The indentation made on the compact surface by the procedure described above is measured with a surface analyzer that facilitates computation of the chordal radius of the indentation. These measurements are then used to calculate the dynamic indentation hardness of the material using the equation described below: [formula]
where, m and r are the mass and radius of the indenting sphere, respectively and hi and hr are the inbound and rebound heights, respectively and a is the chordal radius of the indentation created on the compact surface. G is acceleration due to gravity. […] This value is much lower than that of the standard compressible filler, Avicel PH 102 that has a hardness of 352 MN/m^2. […] The hardness value for Lot # 2 was 52.9 MN/M^2±8.2 MN/M^2. The increase in hardness of the material from the optimized crystallization process is not significant enough to change the conclusion drawn earlier about its ductility.

Regarding `CNC(=O)[C@@H](NC(=O)[C@H](CC(C)C)NC(=O)[C@@H](S)CCN1C(=O)N(C)C(C)(C)C1=O)C(C)(C)C` [API, N-[(2S)-2-Mercapto-1-oxo-4-(3,4,4-trimethyl-2,5-dioxo-1-imidazolidinyl)butyl]-L-leucyl-N,3-dimethyl-L-valinamide], the compactability is 12.3 kPa/MPa in series [1] (1% ground seeds, with sonication); 7.0 kPa/MPa in series [1] (50-g sample, 1.5% ball-milled seeds); 14.4 kPa/MPa in series [1] (50-g sample, 4% ground seeds); 12.6 kPa/MPa in series [1] (50-g sample, 5% ground seeds). Moreover, the product compactability in series [1] (50-g sample, 1% AirJet-milled seeds) is 4.2 kPa/MPa; in series [1] (50-g sample, 1% ball-milled seeds) it was 5.9 Kpa/MPa; in series [1] (50-g sample, 1% ground seeds, without sonication), 10.5 kPa/MPa; in series [1] (50-g sample, 1% seeds crystallized from a ground seeded batch) it was 5.3 kPa/MPa. Further, in series [1] (50-g sample, 4% ground seeds), the “improvement in compactability over material generated by the current process” value was about 10 fold. Moreover, in series [1] (50 g scale, crystallization seeded with 5% large agglomerates), the powder blend compactability is recorded as 3.65 kPa/MPa. Further, the “compactability of the powder blend” value in series [1] (100 Kg scale, "as is" material at 1.5% seed loading) is given as 2.8-3.4 kPa/Mpa; in series [1] ("as is" seed, 0.1% seed loading (representative)), 1.4-1.7 kPa/Mpa. In series [1] (milled API, FIG. 3), the “change of compactability after milling” value is listed as “gain in compactability”. In series [2], the bonding index is 0.025±0.001. Moreover, the figures for the agglomerate size in series [3] (high supersaturation) and in series [3] (low supersaturation) were 200-300 μm and 500-1000 μm, respectively. The “change of crystallinity after milling (X-ray diffraction patterns)” value in series [4] was “reduction in the crystallinity”.

Consider `CNC(=O)[C@@H](NC(=O)[C@H](CC(C)C)NC(=O)[C@@H](S)CCN1C(=O)N(C)C(C)(C)C1=O)C(C)(C)C` [Form 4, N-[(2S)-2-Mercapto-1-oxo-4-(3,4,4-trimethyl-2,5-dioxo-1-imidazolidinyl)butyl]-L-leucyl-N,3-dimethyl-L-valinamide], for which the “stability of crystal structure in the solid state” value in series [5] is listed as “did not transform/decompose to other crystalline structures in the solid state”.

Take `CNC(=O)[C@@H](NC(=O)[C@H](CC(C)C)NC(=O)[C@@H](S)CCN1C(=O)N(C)C(C)(C)C1=O)C(C)(C)C` [Lot# 1, N-[(2S)-2-Mercapto-1-oxo-4-(3,4,4-trimethyl-2,5-dioxo-1-imidazolidinyl)butyl]-L-leucyl-N,3-dimethyl-L-valinamide]: the “brittle fracture index (BFI)” value in series [6] came to 0.14±0.03. Also, the tensile strength in series [7] (listed as MMPI Lot# 1) is reported as 90.46 N/cm^2. The dynamic indentation hardness in series [8] was 35.8 MN/m^2.

`CNC(=O)[C@@H](NC(=O)[C@H](CC(C)C)NC(=O)[C@@H](S)CCN1C(=O)N(C)C(C)(C)C1=O)C(C)(C)C` [Lot# 2, N-[(2S)-2-Mercapto-1-oxo-4-(3,4,4-trimethyl-2,5-dioxo-1-imidazolidinyl)butyl]-L-leucyl-N,3-dimethyl-L-valinamide]: in series [6], the “brittle fracture index (BFI)” value is reported as 0.20±0.02. For the same molecule, the tensile strength in series [7] is 181.90 N/cm^2. For the same molecule, in series [2], the bonding index is on record as 0.034±0.001. In series [8], this molecule registered a dynamic indentation hardness of 52.9 MN/m^2.
